Data published in US20220168307A1, “TREATMENT OF SMA” (Hoffmann-La Roche Inc., priority 2019, published 2022).
Values joined by “and” are separate entries in the source; they are usually repeats but may differ in a detail not shown here. Equal values may be shown once. “Also recorded” adds a separate entry of the source. Read-outs that look alike come from different tables or passages of the source.

What was measured:
CYP2D6 = CYP2D6 (Homo sapiens, UniProt P10635); assay: Time-dependent inhibition (IC50 shift) of CYP2D6 in human liver microsomes; format: in vitro ADME; settings: risdiplam up to 12.5 μM
Procedure: Donors CMV negative for serology are unm
All incubations were conducted in duplicate.
% remaining=(C+I/C^−I)*100

CYP2B6 = target: T1, CYP2B6 (Homo sapiens, UniProt P20813); settings: risdiplam up to 12.5 μM
T1 sequence (P20813 1-491): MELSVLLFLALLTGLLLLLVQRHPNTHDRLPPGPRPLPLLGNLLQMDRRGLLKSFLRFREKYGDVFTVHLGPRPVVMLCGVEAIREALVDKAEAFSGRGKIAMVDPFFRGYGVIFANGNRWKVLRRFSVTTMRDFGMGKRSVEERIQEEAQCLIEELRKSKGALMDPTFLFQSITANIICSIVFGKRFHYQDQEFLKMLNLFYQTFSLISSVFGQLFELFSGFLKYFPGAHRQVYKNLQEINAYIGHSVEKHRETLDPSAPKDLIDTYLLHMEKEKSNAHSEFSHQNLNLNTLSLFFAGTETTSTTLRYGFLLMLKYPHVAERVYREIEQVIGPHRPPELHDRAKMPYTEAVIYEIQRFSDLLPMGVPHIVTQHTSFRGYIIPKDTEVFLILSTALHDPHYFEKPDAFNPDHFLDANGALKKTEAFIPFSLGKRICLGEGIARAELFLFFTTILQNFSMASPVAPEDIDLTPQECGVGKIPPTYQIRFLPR

CYP1A2 [1] = target: T2, CYP1A2 (Homo sapiens, UniProt P05177); assay: biochemical
T2 sequence (P05177 1-516): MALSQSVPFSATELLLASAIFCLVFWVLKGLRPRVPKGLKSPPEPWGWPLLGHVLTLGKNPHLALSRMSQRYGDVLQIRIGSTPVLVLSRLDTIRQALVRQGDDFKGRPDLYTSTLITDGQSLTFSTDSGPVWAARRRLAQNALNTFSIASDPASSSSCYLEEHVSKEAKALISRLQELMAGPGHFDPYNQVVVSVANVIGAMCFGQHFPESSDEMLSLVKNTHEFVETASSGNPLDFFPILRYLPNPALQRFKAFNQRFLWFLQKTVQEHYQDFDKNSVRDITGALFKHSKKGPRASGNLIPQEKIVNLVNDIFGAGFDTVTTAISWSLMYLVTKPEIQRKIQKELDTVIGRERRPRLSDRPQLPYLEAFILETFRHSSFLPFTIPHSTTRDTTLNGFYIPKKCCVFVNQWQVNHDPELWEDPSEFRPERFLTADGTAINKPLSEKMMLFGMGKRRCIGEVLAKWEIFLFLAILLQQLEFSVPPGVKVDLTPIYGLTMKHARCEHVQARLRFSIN

CYP1A2 [2] = target: T2, CYP1A2; assay: Direct inhibition of CYP1A2 (phenacetin) in human liver microsomes
CYP2C9 = CYP2C9 (Homo sapiens, UniProt P11712); assay: Direct inhibition of CYP2C9 (diclofenac) in human liver microsomes
CYP3A4 = CYP3A4 (Homo sapiens, UniProt P08684); assay: Direct inhibition of CYP3A4 (midazolam and testosterone) in human liver microsomes; format: in vitro ADME; set-up: rows headed: % Control activity at; substrate Midazolam; concentration not given; duplicates; % Control activity at; substrate Testosterone; % Remaining; other: direct; CYP3A4-Midazolam Activity; risdiplam 0.20 μM; risdiplam 0.10 μM; dupl; settings: for % Remaining / maximal inhibition: direct; for maximal inhibition: risdiplam tested up to 12.5 μM; for activity: pH 7.4, direct inhibition, read-out: % Control activity at
CYP3A4, sequence (P08684 2-503): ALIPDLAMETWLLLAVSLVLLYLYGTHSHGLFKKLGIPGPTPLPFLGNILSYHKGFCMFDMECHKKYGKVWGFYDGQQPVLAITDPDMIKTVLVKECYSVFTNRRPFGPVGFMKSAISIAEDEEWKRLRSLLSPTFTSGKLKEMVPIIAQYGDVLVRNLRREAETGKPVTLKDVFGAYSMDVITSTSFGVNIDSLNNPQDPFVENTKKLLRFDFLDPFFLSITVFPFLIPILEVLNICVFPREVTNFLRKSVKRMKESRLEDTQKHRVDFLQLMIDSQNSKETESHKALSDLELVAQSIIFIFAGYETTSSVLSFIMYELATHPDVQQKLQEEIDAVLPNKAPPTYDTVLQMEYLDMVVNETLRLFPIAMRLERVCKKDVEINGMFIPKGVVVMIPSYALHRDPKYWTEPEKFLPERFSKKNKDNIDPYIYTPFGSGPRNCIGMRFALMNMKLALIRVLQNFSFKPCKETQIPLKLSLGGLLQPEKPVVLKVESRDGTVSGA

CYP2C9, sequence (P11712 whole entry): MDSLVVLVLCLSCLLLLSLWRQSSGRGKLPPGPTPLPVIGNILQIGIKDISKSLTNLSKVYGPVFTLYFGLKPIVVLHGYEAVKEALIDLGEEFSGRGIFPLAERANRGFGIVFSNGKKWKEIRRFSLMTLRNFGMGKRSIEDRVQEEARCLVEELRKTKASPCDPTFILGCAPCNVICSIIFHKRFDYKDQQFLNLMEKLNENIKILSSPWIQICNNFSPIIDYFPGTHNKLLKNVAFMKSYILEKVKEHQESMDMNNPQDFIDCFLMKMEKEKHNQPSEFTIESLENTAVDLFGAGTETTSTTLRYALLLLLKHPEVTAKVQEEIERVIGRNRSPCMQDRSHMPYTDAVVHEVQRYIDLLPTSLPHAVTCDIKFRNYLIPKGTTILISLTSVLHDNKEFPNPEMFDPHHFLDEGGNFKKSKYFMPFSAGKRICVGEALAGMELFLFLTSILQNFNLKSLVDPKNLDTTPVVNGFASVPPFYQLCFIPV
CYP2D6, sequence (P10635 whole entry): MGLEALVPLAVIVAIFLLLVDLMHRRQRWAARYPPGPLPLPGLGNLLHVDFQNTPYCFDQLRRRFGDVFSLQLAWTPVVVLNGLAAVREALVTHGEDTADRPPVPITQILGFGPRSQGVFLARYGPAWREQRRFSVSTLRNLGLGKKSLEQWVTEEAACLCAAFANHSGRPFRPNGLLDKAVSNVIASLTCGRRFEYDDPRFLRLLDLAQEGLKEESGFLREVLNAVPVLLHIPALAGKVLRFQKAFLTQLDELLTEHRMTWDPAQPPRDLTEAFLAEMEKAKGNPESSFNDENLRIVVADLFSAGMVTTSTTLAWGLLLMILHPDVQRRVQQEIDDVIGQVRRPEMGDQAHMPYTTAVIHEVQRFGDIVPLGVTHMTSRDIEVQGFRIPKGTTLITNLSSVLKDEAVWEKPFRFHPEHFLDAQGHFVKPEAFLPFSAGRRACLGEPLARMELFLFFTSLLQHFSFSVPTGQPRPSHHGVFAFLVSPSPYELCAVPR

Compound: Cc1cn2nc(-c3cc(=O)n4cc(N5CCNC6(CC6)C5)ccc4n3)cc(C)c2n1 [risdiplam, 7-(4,7-diazaspiro[2.5]octan-7-yl)-2-(2,8-dimethylimidazo[1,2-b]pyridazin-6-yl)pyrido[1,2-a]pyrimidin-4-one]
- time-dependent inhibition (in words) (CYP2D6): did not show any significant reversible or time-dependent inhibition; also recorded: No significant reversible or time-dependent inhibition; also recorded: No significant time-dependent inhibition; also recorded: low potential to cause direct or time-dependent inhibition
- time-dependent inhibition (in words) (CYP2B6): did not show any significant reversible or time-dependent inhibition; also recorded: No significant reversible or time-dependent inhibition; also recorded: No significant time-dependent inhibition; also recorded: low potential to cause direct or time-dependent inhibition
- IC50 (CYP1A2 [1]): > 12.5 µM
- % Control activity at (CYP1A2 [2]; direct inhibition, substrate Phenacetin, concentration not given, duplicates): 101%
- reversible (direct) inhibition (in words) (CYP1A2 [2]; risdiplam up to 12.5 μM): did not show any significant reversible or time-dependent inhibition; also recorded: No significant reversible or time-dependent inhibition; also recorded: No significant reversible inhibition; also recorded: low potential to cause direct or time-dependent inhibition
- % Control activity at (CYP2C9; direct inhibition, substrate Diclofenac, concentration not given, duplicates): 82%
- reversible (direct) inhibition (in words) (CYP2C9; risdiplam up to 12.5 μM): did not show any significant reversible or time-dependent inhibition; also recorded: No significant reversible or time-dependent inhibition; also recorded: No significant reversible inhibition; also recorded: low potential to cause direct or time-dependent inhibition
- % Control activity at (CYP3A4; direct inhibition, substrate Testosterone, concentration not given, duplicates): 46%
- % Remaining (CYP3A4; CYP3A4-Midazolam Activity, risdiplam 0.10 μM, duplicates): 100% and 96%
- % Remaining (CYP3A4; CYP3A4-Midazolam Activity, risdiplam 0.20 μM, duplicates): 99% and 102%
- % Remaining (CYP3A4; CYP3A4-Midazolam Activity, risdiplam 0.50 μM, duplicates): 101% and 100%
- % Remaining (CYP3A4; CYP3A4-Midazolam Activity, risdiplam 1.3 μM, duplicates): 108% and 91%
- % Remaining (CYP3A4; CYP3A4-Midazolam Activity, risdiplam 3.2 μM, duplicates): 94% and 97%
- % Remaining (CYP3A4; CYP3A4-Midazolam Activity, risdiplam 8.0 μM, duplicates): 84% and 83%
- % Remaining (CYP3A4; CYP3A4-Midazolam Activity, risdiplam 12.5 μM, duplicates): 72%
- % Remaining (CYP3A4; CYP3A4-Testosterone Activity, risdiplam 0.10 μM, duplicates): 98%
- % Remaining (CYP3A4; CYP3A4-Testosterone Activity, risdiplam 0.20 μM, duplicates): 98% and 96%
- % Remaining (CYP3A4; CYP3A4-Testosterone Activity, risdiplam 0.50 μM, duplicates): 96% and 95%
- % Remaining (CYP3A4; CYP3A4-Testosterone Activity, risdiplam 1.3 μM, duplicates): 93% and 92%
- % Remaining (CYP3A4; CYP3A4-Testosterone Activity, risdiplam 3.2 μM, duplicates): 78% and 79%
- % Remaining (CYP3A4; CYP3A4-Testosterone Activity, risdiplam 8.0 μM, duplicates): 58%
- % Remaining (CYP3A4; CYP3A4-Testosterone Activity, risdiplam 12.5 μM, duplicates): 44% and 46%
- maximal inhibition (CYP3A4; midazolam as substrate): 28%
- maximal inhibition (CYP3A4; testosterone as substrate): 55%
- IC50 (CYP3A4; human, microsomes, pH 7.4, IC50, direct, CYP3A4-Testosterone Activity (6β-hydroxylation), testosterone 50 μM): 11 µM
- activity (CYP3A4; human, microsomes, substrate Midazolam, concentration not given, duplicates): 72%
- activity (CYP3A4; human, microsomes, substrate Testosterone, concentration not given, duplicates): 44%
- direct inhibition of CYP3A4/5 (in words) (CYP3A4; midazolam 1′-hydroxylase and testosterone 6β-hydroxylase, up to 12.5 μM): low potential to cause direct inhibition; also recorded: some inhibition
